Columns and labels:
[1] = tested on: Ba/F3_L858R/T790M/C797S cells; assay: Ba/F3_L858R/T790M/C797S cell proliferation inhibition assay (CellTiter-Glo); type: cell-based; details: Mus musculus, BaF3; cell proliferation, 72 h, CellTiter-Glo; read-out: Ba/F3 (L858R/T790M/C797S) IC50
Procedure: Ba/F3_L858R/T790M/C797S Cell Proliferation Inhibition Assay
In the assay, the inhibition effect of the compounds on the proliferation of Ba/F3_L858R/T790M/C797S cells was tested by adopting a CellTiter-Glo method, and the concentration IC50 of the compound for inhibiting half maximal growth of cells was obtained.
Ba/F3_L858R/T790M/C797S cells were constructed by Pharmaron Beijing Co., Ltd.
1640 medium, fetal bovine serum (FBS), Penicillin-Streptomyces, and GlutaMAX-I Supplement, purchased from GIBCO.
(§1) Brigatinib, purchased from Selleck.
(§2) CellTiter-Glo reagent, purchased from Promega.
1) Ba/F3_L858R/T790M/C797S cells were seeded in a 384-well plate at a density of 700 cells/well with 30 μL/well.
(§3) 2) Day 0: […] of gradiently-diluted compounds to be tested with a final concentration of DMSO of 0.1% was added to plate using Echo, and the plate was incubated in a cell incubator for 72 h (37° C., 5% CO2). […] of DMSO was added into each well in blank control group.
(§4) 3) Day 3: 30 μL Cell Titer-Glo reagent was added to each well, and the plate was in the dark under room temperature for 30 min.
(§5) 4) The chemiluminescent signal was detected by an Envision plate reader (PerkinElmer).
(§6) 5) Data analysis was performed using GraphPad Prism software to give the IC50 for compounds.

[2] = tested on: Ba/F3_Del19/T790M/C797S cells; assay: Ba/F3_Del19/T790M/C797S cell proliferation inhibition assay (CellTiter-Glo); type: cell-based; details: Mus musculus, BaF3; cell proliferation, 72 h, CellTiter-Glo; read-out: Ba/F3 (Del19/T790M/C797S) IC50
Procedure: Ba/F3_Del19/T790M/C797S Cell Proliferation Inhibition Assay
In the assay, the inhibition effect of the compounds on the proliferation of Ba/F3_Del19/T790M/C797S cells was tested by adopting a CellTiter-Glo method, and the concentration IC50 of the compound for inhibiting half maximal growth of cells was obtained.
Ba/F3_Del19/T790M/C797S, purchased from Kyinno Biotechnology Co., Ltd. 1640 medium, fetal bovine serum (FBS), Penicillin-Streptomyces, and GlutaMAX-I Supplement, purchased from GIBCO.
as §1, §2
1) Ba/F3_Del19/T790M/C797S cells were seeded in a 384-well plate at a density of 700 cells/well with 30 μL/well.
as §3, §4, §5
Data analysis was performed using GraphPad Prism 6 software to give the IC50 for compounds.

A431 cells (EGFR WT) = assay: A431 cell proliferation inhibition assay (CellTiter-Glo); type: cell-based; details: Homo sapiens, A-431; cell proliferation, 72 h, CellTiter-Glo; read-out: A431 EGFR WT IC50
Procedure: A431 Cell Proliferation Inhibition Assay
In the assay, the inhibition effect of the compounds on the proliferation of A431 cells was tested by adopting a CellTiter-Glo method, and the concentration IC50 of the compound for inhibiting half maximal growth of cells was obtained.
A431 cells, purchased from ATCC.
DMEM medium, fetal bovine serum (FBS), and Penicillin-Streptomycin, purchased from GIBCO.
as §1, §2
1) A431 cells were seeded in a 384-well plate at a density of 800 cells/well with 30 μL/well, and the plate was cultured in a cell incubator for 24 h (37° C., 5% CO2).
as §3, §4, §5, §6

EGFR WT (wild type EGFR) = EGFR WT (wild type EGFR) (Homo sapiens (Human), UniProt P00533); assay: In vitro enzymatic TR-FRET (HTRF KinEASE-TK) kinase assay, EGFR WT; type: biochemical; details: kinase activity, TR-FRET; read-out: EGFR (WT) IC50
Sequence of EGFR WT (wild type EGFR) (P00533 25-1210): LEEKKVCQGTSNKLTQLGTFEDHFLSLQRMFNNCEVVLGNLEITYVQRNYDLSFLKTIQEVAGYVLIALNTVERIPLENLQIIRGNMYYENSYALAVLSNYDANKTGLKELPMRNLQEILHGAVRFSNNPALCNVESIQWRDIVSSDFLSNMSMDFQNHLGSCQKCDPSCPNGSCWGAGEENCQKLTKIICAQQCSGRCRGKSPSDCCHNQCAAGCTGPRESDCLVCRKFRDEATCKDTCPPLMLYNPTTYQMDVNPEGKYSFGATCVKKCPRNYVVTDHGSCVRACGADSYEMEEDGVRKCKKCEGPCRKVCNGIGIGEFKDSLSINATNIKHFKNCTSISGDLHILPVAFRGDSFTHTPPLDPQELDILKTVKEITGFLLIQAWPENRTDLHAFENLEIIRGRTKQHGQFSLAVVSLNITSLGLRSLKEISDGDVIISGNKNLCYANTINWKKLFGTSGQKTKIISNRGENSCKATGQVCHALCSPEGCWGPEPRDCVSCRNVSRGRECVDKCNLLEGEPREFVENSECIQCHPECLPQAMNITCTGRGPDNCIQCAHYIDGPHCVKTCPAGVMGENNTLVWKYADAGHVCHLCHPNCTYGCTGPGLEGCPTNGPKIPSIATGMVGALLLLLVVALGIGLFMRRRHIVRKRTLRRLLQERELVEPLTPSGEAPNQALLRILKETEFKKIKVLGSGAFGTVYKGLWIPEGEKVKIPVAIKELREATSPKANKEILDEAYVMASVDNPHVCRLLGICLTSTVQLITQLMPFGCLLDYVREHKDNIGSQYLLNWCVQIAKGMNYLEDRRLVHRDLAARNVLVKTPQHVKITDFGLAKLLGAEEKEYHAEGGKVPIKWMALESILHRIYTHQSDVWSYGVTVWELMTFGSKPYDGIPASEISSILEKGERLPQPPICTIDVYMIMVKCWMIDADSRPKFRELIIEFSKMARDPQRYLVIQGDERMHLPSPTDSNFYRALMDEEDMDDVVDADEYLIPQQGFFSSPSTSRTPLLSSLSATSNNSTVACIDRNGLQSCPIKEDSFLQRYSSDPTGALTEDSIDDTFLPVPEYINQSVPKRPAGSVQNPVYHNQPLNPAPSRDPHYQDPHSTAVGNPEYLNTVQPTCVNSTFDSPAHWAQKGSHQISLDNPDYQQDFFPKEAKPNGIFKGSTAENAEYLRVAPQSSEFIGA
Procedure: (I) In Vitro Enzymatic Experiment for EGFR WT and EGFR L858R/T790M/C797S
In the assay, the inhibition effect of the compound on the kinase activity of EGFR WT (wild type EGFR) and EGFR L858R/T790M/C797S was tested by adopting a time-resolved fluorescence resonance energy transfer (TR-FRET) method, and half maximal inhibitory concentration IC50 of the compound on the kinase activity of EGFR was obtained.
EGFR recombinase and EGFR L858R/T790M/C797S recombinase, purchased from Signalchem.
HTRF KinEASE-TK kit, purchased from Cisbio.
DTT, MnCl2, and MgCl2, purchased from Sigma.
ATP, purchased from Promega.
as §1
1) 1× working solution was prepared: 5 mM MgCl2; 1 mM DTT; 1 mM MnCl2 and 1× kinase buffer (in kit).
2) […] of gradiently-diluted compound was transferred to a 384-well plate using Echo 550 (Labcyte).
3) 5 μL of 2× EGFR WT or EGFR L858R/T790M/C797S recombinase solution was added to the 384-well plate, and the plate was incubated at room temperature for 10 min.
4) 5 μL of 2× TK-substrate-biotin substrate solution (containing ATP) was added to the 384-well plate, and the plate was incubated at room temperature for 40 min.
5) 5 μL of assay solution containing Sa-XL 665 HTRF and 5 μL of TK-antibody-Cryptatewas were added to the plate, and the plate was incubated at room temperature for 1 h.
6) The fluorescence signal values at 615 nm and 665 nm were measured for each well using an Envision microplate reader (PerkinElmer).
7) The ratio of fluorescence signal values at 665 nm and 615 nm was calculated for each well.
8) Data analysis was performed using GraphPad Prism software to give the IC50 for compounds.

Row | Structure (SMILES) | IC50 [1] | IC50 [2] | IC50 (A431 cells (EGFR WT)) | IC50 (EGFR WT (wild type EGFR))
1 | COc1cc2c(cc1Nc1ncc(Br)c(Nc3ccc4nccnc4c3P(C)(C)=O)n1)-c1cnn(C)c1CCN2C(C)C [Compound 6] | < 10 nM | < 10 nM | 100 to 1000 nM | 1 to 10 nM
2 | COc1cc2c(cc1Nc1ncc(Br)c(Nc3ccnc(C)c3NS(C)(=O)=O)n1)-c1cnn(C)c1CCN2C [Compound 136] | 100 to 1000 nM | 100 to 1000 nM | > 1000 nM | 1 to 10 nM
3 | COc1cc2c(cc1Nc1ncc(Br)c(Nc3ccccc3P(C)(C)=O)n1)-c1cnn(C)c1CNC2 [Compound 49] | 10 to 50 nM | 10 to 50 nM | 100 to 1000 nM | 10 to 50 nM
4 | COc1cc2c(cc1Nc1ncc(C)c(Nc3ccccc3P(C)(C)=O)n1)-c1cnn(C)c1CCN2C(C)C [Compound 94] | 10 to 50 nM | 10 to 50 nM | 100 to 1000 nM | 1 to 10 nM
5 | COc1cc2c(cc1Nc1ncc(Br)c(Nc3ccc4nccnc4c3N(C)S(=O)(=O)C3CC3)n1)-c1cnn(C)c1CCN2C [Compound 21] | < 10 nM | < 10 nM | 100 to 1000 nM | 1 to 10 nM
6 | COc1cc2c(cc1Nc1ncc(Br)c(Nc3ccccc3P(C)(C)=O)n1)-c1cnn(C)c1CCN2CC(F)(F)F [Compound 73] | 10 to 50 nM | 10 to 50 nM | 100 to 1000 nM | 10 to 50 nM
7 | COc1cc2c(cc1Nc1ncc(Br)c(Nc3ccccc3P(C)(C)=O)n1)-c1cnnn1CCN2C [Compound 48] | 10 to 50 nM | < 10 nM | 100 to 1000 nM | 10 to 50 nM
8 | COc1cc2c(cc1Nc1ncc(Br)c(Nc3ccccc3P(C)(C)=O)n1)-c1cnn(C)c1CCC2 [Compound 38] | 50 to 100 nM | 10 to 50 nM | 100 to 1000 nM | 10 to 50 nM
9 | COc1nc2c(cc1Nc1ncc(Br)c(Nc3ccccc3P(C)(C)=O)n1)-c1cnn(C)c1CCN2 [Compound 51] | 10 to 50 nM | < 10 nM | 100 to 1000 nM | 10 to 50 nM
10 | COc1cc2c(cc1Nc1ncc(Br)c(Nc3ccc4nccnc4c3N(C)S(C)(=O)=O)n1)-c1cnn(C)c1CCN2C(C)C [Compound 131] | 10 to 50 nM | 10 to 50 nM | > 1000 nM | 1 to 10 nM
11 | COc1cc2c(cc1Nc1ncc(Cl)c(Nc3ccncc3P(C)(C)=O)n1)-c1cnn(C)c1CCN2C(C)C [Compound 95] | 50 to 100 nM | 10 to 50 nM | 100 to 1000 nM | 1 to 10 nM
12 | COc1cc2c(cc1Nc1ncc(Cl)c(Nc3cccnc3P(C)(C)=O)n1)-c1cnn(C)c1CCN2C(C)C [Compound 100] | 10 to 50 nM | 10 to 50 nM | 100 to 1000 nM | 1 to 10 nM
13 | COc1cc2c(cc1Nc1ncc(Br)c(Nc3ccc4nccnc4c3P(C)(C)=O)n1)-c1cnn(C3COC3)c1CCN2C(C)C [Compound 98] | 10 to 50 nM | 10 to 50 nM | 100 to 1000 nM | 1 to 10 nM
14 | COc1cc2c(cc1Nc1ncc(Br)c(Nc3ccccc3P(C)(C)=O)n1)-c1cnn(C)c1C(F)(F)CN2 [Compound 92] | 10 to 50 nM | < 10 nM | 100 to 1000 nM | 1 to 10 nM
15 | COc1cc2c(cc1Nc1ncc(Br)c(Nc3ccccc3P(C)(C)=O)n1)-c1cnn(C)c1CC=C2 [Compound 40] | 10 to 50 nM | < 10 nM | 100 to 1000 nM | 10 to 50 nM
